Reference: patent publication US7423159B2, “Agent for preventing or treating neuropathy” (Takeda Pharmaceutical Company Limited, priority 2002, dated 2008)

SMILES	melting point
Cn1ncc(/C=C/C(=O)Nc2ccc(S(N)(=O)=O)cc2)c1-c1ccc(F)cc1 [Example 181, (2E)-N-[4-(Aminosulfonyl)phenyl]-3-[5-(4-fluorophenyl)-1-methyl-1H-pyrazol-4-yl]acrylamide]	300 to 305 °C (dec.)
Cn1ncc(/C=C/C(=O)Nc2ccc(C(N)=O)cc2)c1-c1ccc(F)cc1 [Example 183, 4-({(2E)-3-[5-(4-Fluorophenyl)-1-methyl-1H-pyrazol-4-yl]prop-2-enoyl}amino)benzamide]	276 to 278 °C
Cn1ncc(/C=C/C(=O)Nc2ccccc2CO)c1-c1ccc(F)cc1 [Example 184, (2E)-3-[5-(4-Fluorophenyl)-1-methyl-1H-pyrazol-4-yl]-N-[2-(hydroxymethyl)phenyl]acrylamide]	119 to 120 °C
Cn1ncc(/C=C/C(=O)Nc2ccc(CCn3cccn3)cc2)c1-c1ccc(F)cc1 [Example 186, (2E)-3-[5-(4-Fluorophenyl)-1-methyl-1H-pyrazol-4-yl]-N-{4-[2-(1H-pyrazol-1-yl)ethyl]phenyl}acrylamide]	205 to 206 °C
Cn1ncc(/C=C/C(=O)Nc2ccc(CCn3ccnc3)cc2)c1-c1ccc(F)cc1 [Example 187, (2E)-3-{5-(4-Fluorophenyl)-1-methyl-1H-pyrazol-4-yl}-N-{4-[2-(1H-imidazol-1-yl)ethyl]phenyl}acrylamide]	160 to 162 °C
CCOC(=O)CCC(=O)NCc1ccc(NC(=O)/C=C/c2cnn(C)c2-c2ccc(F)cc2)cc1 [Example 188, Ethyl 4-{[4-({(2E)-3-[5-(4-fluorophenyl)-1-methyl-1H-pyrazol-4-yl]prop-2-enoyl}amino)benzyl]amino}-4-oxobutanoate]	195 to 197 °C
CC(=O)NCc1ccc(NC(=O)/C=C/c2cnn(C)c2-c2ccc(F)cc2)cc1 [Example 189, (2E)-N-{4-[(Acetylamino)methyl]phenyl}-3-[5-(4-fluorophenyl)-1-methyl-1H-pyrazol-4-yl]acrylamide]	233 to 234 °C
CCc1nccn1Cc1ccc(NC(=O)/C=C/c2cnn(C)c2-c2ccc(F)cc2)cc1 [Example 191, (2E)-N-{4-[(2-Ethyl-1H-imidazol-1-yl)methyl]phenyl}-3-[5-(4-fluorophenyl)-1-methyl-1H-pyrazol-4-yl]acrylamide]	237 to 238 °C
Cn1ncc(/C=C/C(=O)Nc2ccc(Cn3ccnn3)cc2)c1-c1ccc(F)cc1 [Example 194, (2E)-3-[5-(4-Fluorophenyl)-1-methyl-1H-pyrazol-4-yl]-N-[4-(1H-1,2,3-triazol-1-ylmethyl)phenyl]acrylamide]	252 to 253 °C
Cn1ncc(/C=C/C(=O)Nc2ccc(Cn3nccn3)cc2)c1-c1ccc(F)cc1 [Example 196, (2E)-3-[5-(4-Fluorophenyl)-1-methyl-1H-pyrazol-4-yl]-N-[4-(2H-1,2,3-triazol-2-ylmethyl)phenyl]acrylamide]	178 to 179 °C
Cn1ncc(/C=C/C(=O)Nc2ccc(-n3cccn3)cc2)c1-c1ccc(F)cc1 [Example 197, (2E)-3-[5-(4-Fluorophenyl)-1-methyl-1H-pyrazol-4-yl]-N-[4-(1H-pyrazol-1-yl)phenyl]acrylamide]	200 to 201 °C
Cn1ncc(/C=C/C(=O)Nc2ccc(Cn3ncnn3)cc2)c1-c1ccc(F)cc1 [Example 198, (2E)-3-[5-(4-Fluorophenyl)-1-methyl-1H-pyrazol-4-yl]-N-[4-(2H-tetrazol-2-ylmethyl)phenyl]acrylamide]	210 to 211 °C
Cn1ncc(/C=C/C(=O)Nc2ccc(Cn3cnnn3)cc2)c1-c1ccc(F)cc1 [Example 199, (2E)-3 [5-(4-Fluorophenyl)-1-methyl-1H-pyrazol-4-yl]-N-[4-(1H-tetrazol-1-ylmethyl)phenyl]acrylamide]	233 to 234 °C
Cn1ncc(/C=C/C(=O)Nc2ccc(Cn3ccnc3CO)cc2)c1-c1ccc(F)cc1 [Example 200, (2E)-3-[5-(4-Fluorophenyl)-1-methyl-1H-pyrazol-4-yl]-N-(4-{[2-(hydroxymethyl)-1H-imidazol-1-yl]methyl}phenyl)acrylamide]	229 to 230 °C
